Like-named read-outs stand apart in the source and are kept apart here.
Assays:
HDAC9 = HDAC9 (Homo sapiens, UniProt Q9UKV0); assay: HDAC enzyme inhibitory activity, FRET method; assay type: biochemical; settings: Table 6; read-out: IC50 HDAC subtype 9
Procedure: (§1) The compounds of the present disclosure were assayed for enzyme inhibitory activity against various subtypes of HDAC enzymes by the FRET method. The various subtypes of HDAC enzymes were obtained either through purification or direct purchase of assay kits.
(§2) The specific method was as follows: The enzyme was added to a 384-well plate, and a reaction buffer was added to the control well. Serially diluted DMSO sample solutions were added to the reaction wells, and the plate was incubated at room temperature for 15 min. Then a chromogenic agent was added to stop the reaction, and fluorescence was generated. The fluorescence intensity was measured using an EnVision multi-label microplate reader (excitation: 355 nm, emission: 460 nm). The endpoint value was read after the color development reached stability. The inhibition IC50 of the compounds was calculated using GraphPad Prism4 software relative to DMSO.

[1] = Pharmacokinetic experiment in mice; assay type: in vivo, CD-1 female mice; settings: mouse, plasma
Procedure: CD-1 female mice aged 7 to 10 weeks were intravenously administered and orally administered at doses of 1 mg/kg and 10 mg/kg, respectively. The mice were fasted for at least 12 h before the administration and given food 4 h after the administration, and they were given ad libitum access to water during the experiment.
On the day of the experiment, animals in the intravenous group were given the corresponding compound by single injection via the tail vein at an administration volume of 10 mL/kg; and animals in the oral group were given the corresponding compound by single intragastric injection at an administration volume of 10 mL/kg. The animals were weighed before administration, and the administration volume was calculated according to the body weight. The sample collection time points were 0.083 h, 0.167 h, 0.5 h, 1 h, 2 h, 4 h, 8 h, and 24 h.
About 200 µL of whole blood was collected through the orbital venous plexus at each time point and used to prepare plasma for concentration determination by high-performance liquid chromatography-tandem mass spectrometry (LC-MS/MS). The plasma concentrations were processed using a non-compartmental model of Winnolin pharmacokinetic software, and the pharmacokinetic parameters were calculated using a linear-log trapezoidal method. Table 9. Results of in vivo pharmacokinetic evaluation of compounds of the present disclosure

HDAC6 = target: T1, HDAC6 (Homo sapiens, UniProt Q9UBN7); assay: HDAC enzyme inhibitory activity, FRET method; assay type: biochemical; settings: Table 6; read-out: IC50 HDAC subtype 6
T1 sequence (Q9UBN7 1-1215): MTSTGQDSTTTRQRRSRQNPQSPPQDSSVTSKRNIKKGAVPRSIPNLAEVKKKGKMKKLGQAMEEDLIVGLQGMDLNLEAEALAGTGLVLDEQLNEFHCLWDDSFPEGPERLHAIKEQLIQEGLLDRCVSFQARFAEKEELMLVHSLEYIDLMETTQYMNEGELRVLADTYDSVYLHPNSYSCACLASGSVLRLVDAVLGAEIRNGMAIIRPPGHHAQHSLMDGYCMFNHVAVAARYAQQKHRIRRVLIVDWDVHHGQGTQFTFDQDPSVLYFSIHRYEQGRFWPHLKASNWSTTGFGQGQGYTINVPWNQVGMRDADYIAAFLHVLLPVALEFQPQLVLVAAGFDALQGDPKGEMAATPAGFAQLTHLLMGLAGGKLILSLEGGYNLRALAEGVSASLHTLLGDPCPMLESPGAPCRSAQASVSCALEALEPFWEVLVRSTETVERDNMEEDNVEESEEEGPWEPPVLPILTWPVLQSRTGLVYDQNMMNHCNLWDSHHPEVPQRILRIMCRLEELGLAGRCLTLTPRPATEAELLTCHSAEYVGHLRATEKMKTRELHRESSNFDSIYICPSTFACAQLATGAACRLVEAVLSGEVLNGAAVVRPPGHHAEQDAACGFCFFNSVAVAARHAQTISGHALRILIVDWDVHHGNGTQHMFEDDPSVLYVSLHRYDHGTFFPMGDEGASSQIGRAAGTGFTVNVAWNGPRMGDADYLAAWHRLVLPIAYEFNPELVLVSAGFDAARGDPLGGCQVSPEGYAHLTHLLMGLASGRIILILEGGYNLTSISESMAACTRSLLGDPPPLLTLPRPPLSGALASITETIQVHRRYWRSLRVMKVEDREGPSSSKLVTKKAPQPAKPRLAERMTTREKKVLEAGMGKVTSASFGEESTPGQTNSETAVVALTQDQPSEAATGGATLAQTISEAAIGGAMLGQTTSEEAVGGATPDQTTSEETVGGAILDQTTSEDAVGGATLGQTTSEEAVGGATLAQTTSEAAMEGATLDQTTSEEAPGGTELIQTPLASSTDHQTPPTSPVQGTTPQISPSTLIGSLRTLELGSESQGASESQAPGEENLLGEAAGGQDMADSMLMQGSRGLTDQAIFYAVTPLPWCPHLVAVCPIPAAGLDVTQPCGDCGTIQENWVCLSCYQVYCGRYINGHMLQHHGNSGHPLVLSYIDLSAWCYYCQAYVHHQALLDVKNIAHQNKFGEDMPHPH
Procedure: as §1, §2

HDAC2 = HDAC2 (Homo sapiens, UniProt Q92769); assay: HDAC enzyme inhibitory activity, FRET method; assay type: biochemical
Procedure: as §1, §2

HDAC10 = target: T2, HDAC10 (Homo sapiens, UniProt Q969S8); assay: biochemical
T2 sequence (Q969S8 1-669): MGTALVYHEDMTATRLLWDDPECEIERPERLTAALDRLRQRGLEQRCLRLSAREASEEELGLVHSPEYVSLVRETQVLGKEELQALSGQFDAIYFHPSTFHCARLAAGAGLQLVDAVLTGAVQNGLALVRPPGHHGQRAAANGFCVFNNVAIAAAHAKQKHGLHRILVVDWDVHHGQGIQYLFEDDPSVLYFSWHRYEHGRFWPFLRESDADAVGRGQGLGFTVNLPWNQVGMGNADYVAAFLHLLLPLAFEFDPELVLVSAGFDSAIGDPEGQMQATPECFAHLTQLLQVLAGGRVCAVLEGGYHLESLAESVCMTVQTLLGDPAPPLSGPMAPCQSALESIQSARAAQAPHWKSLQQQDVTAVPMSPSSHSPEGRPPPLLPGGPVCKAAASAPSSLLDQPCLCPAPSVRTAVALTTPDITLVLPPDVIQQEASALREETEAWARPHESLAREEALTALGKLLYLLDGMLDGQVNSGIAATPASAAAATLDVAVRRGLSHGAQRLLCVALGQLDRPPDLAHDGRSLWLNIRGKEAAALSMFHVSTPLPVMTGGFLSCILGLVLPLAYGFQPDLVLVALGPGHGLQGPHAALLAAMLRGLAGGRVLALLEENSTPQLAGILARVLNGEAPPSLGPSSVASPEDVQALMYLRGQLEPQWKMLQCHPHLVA
Procedure: as §1, §2

[2] = Injection (1 mg/kg), intravenous

Sequence of HDAC2 (Q92769 whole entry, species assumed): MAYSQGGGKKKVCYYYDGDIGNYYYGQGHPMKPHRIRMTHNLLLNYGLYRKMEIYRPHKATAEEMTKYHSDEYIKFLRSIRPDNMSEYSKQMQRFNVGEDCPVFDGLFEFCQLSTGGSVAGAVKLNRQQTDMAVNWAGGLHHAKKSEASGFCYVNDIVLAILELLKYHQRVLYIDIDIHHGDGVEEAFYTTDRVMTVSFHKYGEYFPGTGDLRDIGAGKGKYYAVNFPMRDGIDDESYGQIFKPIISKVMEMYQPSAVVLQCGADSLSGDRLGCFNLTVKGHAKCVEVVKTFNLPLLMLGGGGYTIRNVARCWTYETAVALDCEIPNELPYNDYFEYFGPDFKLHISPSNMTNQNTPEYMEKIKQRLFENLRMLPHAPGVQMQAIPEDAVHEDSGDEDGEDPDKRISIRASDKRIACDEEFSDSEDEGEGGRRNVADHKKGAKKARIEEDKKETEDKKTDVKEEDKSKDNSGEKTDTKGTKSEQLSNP
Sequence of HDAC9 (Q9UKV0 whole entry, species assumed): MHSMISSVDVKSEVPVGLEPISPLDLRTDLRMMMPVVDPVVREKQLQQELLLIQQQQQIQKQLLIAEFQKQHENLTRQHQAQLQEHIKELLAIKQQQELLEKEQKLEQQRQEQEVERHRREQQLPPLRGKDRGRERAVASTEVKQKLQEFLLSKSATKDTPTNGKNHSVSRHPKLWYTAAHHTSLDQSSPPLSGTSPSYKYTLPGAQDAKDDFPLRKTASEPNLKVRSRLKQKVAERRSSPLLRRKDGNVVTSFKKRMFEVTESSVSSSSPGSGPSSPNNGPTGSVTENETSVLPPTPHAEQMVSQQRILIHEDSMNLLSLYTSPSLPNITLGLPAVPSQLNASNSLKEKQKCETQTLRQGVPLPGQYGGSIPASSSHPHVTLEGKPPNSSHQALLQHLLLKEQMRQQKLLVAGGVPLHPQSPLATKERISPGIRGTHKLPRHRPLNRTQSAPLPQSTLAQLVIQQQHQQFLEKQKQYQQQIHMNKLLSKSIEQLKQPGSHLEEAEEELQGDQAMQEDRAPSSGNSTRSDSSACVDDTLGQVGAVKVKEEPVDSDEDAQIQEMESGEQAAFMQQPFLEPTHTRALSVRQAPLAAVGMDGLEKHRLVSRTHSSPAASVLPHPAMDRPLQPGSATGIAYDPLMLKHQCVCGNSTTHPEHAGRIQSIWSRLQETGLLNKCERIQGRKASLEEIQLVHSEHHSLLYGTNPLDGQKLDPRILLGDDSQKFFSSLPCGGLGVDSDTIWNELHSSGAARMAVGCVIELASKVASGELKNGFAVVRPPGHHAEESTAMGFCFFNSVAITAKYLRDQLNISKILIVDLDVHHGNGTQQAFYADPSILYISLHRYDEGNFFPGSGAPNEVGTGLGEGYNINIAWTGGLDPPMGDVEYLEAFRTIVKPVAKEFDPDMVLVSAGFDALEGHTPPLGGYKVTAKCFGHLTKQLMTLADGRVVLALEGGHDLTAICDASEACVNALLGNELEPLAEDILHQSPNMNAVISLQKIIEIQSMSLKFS

SMILES: CS(C)(=O)=Nc1ccc(C(=O)Nc2cc(-c3ccc(F)cc3)ccc2N)cc1 [Compound 1, N-(4-Amino-4'-fluoro-[1,1'-biphenyl]-3-yl)-4-((dimethyl(oxo)-1^λ-6-sulfaneylidene)amino)benzamide]
- IC50 (HDAC9): > 30000 nM
- AUC(0-t) [1, 2]: 2280 ng·h/mL
- clearance [1, 2]: 7.29 mL/min/kg
- half-life [1, 2]: 3.01 h
- Vd ([1]; Injection (1 mg/kg), intravenous, read-out: Vdss): 1.68 L/kg
- AUC(0-t) ([1]; Oral administration (10 mg/kg)): 15400 ng·h/mL
- Cmax ([1]; Oral administration (10 mg/kg)): 1370 ng/mL
- Tmax ([1]; Oral administration (10 mg/kg)): 2 h
- bioavailability ([1]; Oral administration (10 mg/kg)): 67.4%
- half-life ([1]; Oral administration (10 mg/kg)): 2.73 h
- IC50 (HDAC6): > 30000 nM
- IC50 (HDAC2; Table 4, read-out: IC50 HDAC2): < 500 nM
- IC50 (HDAC2; Table 5, read-out: IC50 HDAC2): 30 to 300 nM
- IC50 (HDAC2; Table 6, read-out: IC50 HDAC subtype 2): 141 nM
- IC50 (HDAC10): 22.2 nM

Reference: patent EP4714938A1, “HDAC1/2 SELECTIVE INHIBITOR AND USE THEREOF” (Wigen Biomedicine Technology (Shanghai) Co., Ltd., priority 2023, dated 2024)
